Assays:
[1] = test system: normal peripheral blood lymphocytes (PBLs); details: cited from earlier work
JURKAT cells = details: read-out: IC50 in JURKAT cells; cited from earlier work
K562 cells = test system: K562 cells; set-up: method as in PMID 32178533; details: cited from earlier work
[2] = Cell viability assay in normal mononuclear cells; type: cell-based, human; details: human
Procedure: (§1) All compounds were dissolved in dimethyl sulfoxide (DMSO) at a concentration of 20 mg/mL. In all assays, culture medium containing 0.1% DMSO was used as the negative control, while dasatinib was included as the positive control. Normal mononuclear cells (MNCs) were included as the normal cell control. All experiments were performed in triplicate. Normal mononuclear cells (MNCs) were isolated from peripheral blood mononuclear cells obtained from healthy human donors. Cell collection was conducted in accordance with institutional guidelines, including written informed consent from each participant. All procedures were approved by Ethics and Scientific Committee of the Mexican Institute of Social Security (IMSS, ethical approval number: CNIC R-2021-785-025). The MNCs were purified using FicollPaque Plus (Pharmacia Biotech, Uppsala, Sweden) by centrifugation at 400× g for 30 min at room temperature, following the manufacturer’s protocol. The resulting cells were resuspended in RPMI-1640 medium supplemented with 10% fetal bovine serum (FBS) and counted using a hemocytometer after trypan blue staining, confirming a viability of 95% [56]. […] After incubation, both leukemic cells and MNCs were collected, washed with phosphate-buffered saline (PBS), and stained with DAPI (500 ng/mL) for 15 min in darkness, following the manufacturer’s instructions. Fluorescence was analyzed using a FACSVerse flow cytometer (BD Bioscience, San Jose, CA, USA). Flow cytometry data were analyzed using FlowJo^TM software (version 10.9). […] All experiments were performed in triplicate, and results were expressed as means ± standard errors of the means (SEMs). Statical analysis was performed using one-way analysis of variance (ANOVA), followed by Dunnett’s post hoc test to compare treated groups against the control.

[3] = test system: leukemia cell lines (CCRF-CEM, REH, JURKAT, MOLT-4, THP-1); test: Cell viability assay, all leukemia cell lines tested (summary statements); type: cell-based; details: 48 h, summary over CCRF-CEM, REH, JURKAT, MOLT-4, THP-1
Procedure: (§2) Cell lines were cultured in RPMI 1640 medium (Roswell Park Memorial Institute medium) supplemented with 10% fetal bovine serum (FBS) and 1% penicillin–streptomycin. Cultures were maintained at 37 °C in a humidified incubator with 5% CO2. All biological evaluations were performed using cell between passages 3 and 4. All compounds were dissolved in dimethyl sulfoxide (DMSO) at a concentration of 20 mg/mL. In all assays, culture medium containing 0.1% DMSO was used as the negative control, while dasatinib was included as the positive control. Normal mononuclear cells (MNCs) were included as the normal cell control. All experiments were performed in triplicate. Leukemic cell lines and normal mononuclear cells (MNCs) were used to evaluate the cytotoxicity of the compounds. Leukemic cells (1 × 10^5 cells/well) were cultured in 96-well plates and treated with increasing concentrations of compounds (0.02, 0.2, 2.0, and 20 µM) for 48 h. After incubation, both leukemic cells and MNCs were collected, washed with phosphate-buffered saline (PBS), and stained with DAPI (500 ng/mL) for 15 min in darkness, following the manufacturer’s instructions. Fluorescence was analyzed using a FACSVerse flow cytometer (BD Bioscience, San Jose, CA, USA). Flow cytometry data were analyzed using FlowJo^TM software (version 10.9). […] All experiments were performed in triplicate, and results were expressed as means ± standard errors of the means (SEMs). Statical analysis was performed using one-way analysis of variance (ANOVA), followed by Dunnett’s post hoc test to compare treated groups against the control.

[4] = test system: peripheral blood mononuclear cells (MNCs); test: Cell viability assay in normal mononuclear cells; type: cell-based, human
Procedure: as §1

REH = test: Cell viability assay (DAPI, flow cytometry), REH; type: cell-based; details: for IC50: Homo sapiens, REH, 48 h, mean ± SEM, N/A: not active
Procedure: as §2

JURKAT = test: Cell viability assay (DAPI, flow cytometry), JURKAT; type: cell-based
Procedure: as §2

CCRF-CEM = test: Cell viability assay (DAPI, flow cytometry), CCRF-CEM; type: cell-based
Procedure: as §2

MOLT-4 = test: Cell viability assay (DAPI, flow cytometry), MOLT-4; type: cell-based
Procedure: as §2

THP-1 = test: Cell viability assay (DAPI, flow cytometry), THP-1; type: cell-based
Procedure: as §2

[5] = ratio of IC50 in the MNC line over IC50 in the leukemia cell line

## C=C(C=O)[C@@H]1CC[C@]2(C)CC[C@]3(C)[C@H](CC[C@@H]4[C@@]5(C)CC[C@H](O)C(C)(C)[C@@H]5CC[C@]43C)[C@@H]12 [3β-hydroxylup-20(29)-en-30-al]
[1]
  reduction of viability of normal peripheral blood lymphocytes (PBLs): 32.17%
JURKAT cells
  IC50: 11.7 ± 1.06 µM
K562 cells
  IC50: 19.5 ± 0.47 µM

## C=C(C)C1CCC2(C(=O)O)CCC3(C)C(CCC4C5(C)CCC(O)C(C)(CO)C5CCC43C)C12 (stereo not drawn) [Compound T1, 3α,24-dihydroxylup-20(29)-en-28-oic acid]
[2]
  IC50 at 48 h: > 200 µM
[3]
  IC50 across all leukemia cell lines tested: no activity

## C=C(C)C1CCC2(C(=O)O)CCC3(C)C(CCC4C5(C)CCC(OC)C(C)(CO)C5CCC43C)C12 (stereo not drawn) [Compound T1a, 3α-methoxy-24-hydroxylup-20(29)-en-28-oic acid]
[4]
  IC50 MNCs: no activity
REH
  IC50: > 20 µM

## C=C(C=O)C1CCC2(C(=O)O)CCC3(C)C(CCC4C5(C)CCC(OC)C(C)(CO)C5CCC43C)C12 (stereo not drawn) [Compound T1b, 3α-methoxy-24-hydroxy-30-oxolup-20(29)-en-28-oic acid]
JURKAT; Homo sapiens, Jurkat, 48 h, mean ± SEM, N/A: not active
  IC50: 15 ± 1.6 µM
JURKAT; [5]
  SI: selectivity index, JURKAT: 0.72
[2]
  IC50 at 48 h: 10.8 ± 1.3 µM
CCRF-CEM; Homo sapiens, CCRF-CEM, 48 h, mean ± SEM, N/A: not active
  IC50: 6.87 ± 0.6 µM
CCRF-CEM; [5]
  SI: selectivity index, CCRF-CEM: 1.59
[3]; read-out: IC50 across all leukemia cell lines tested
  IC50: 4.05 to 15 µM
MOLT-4; Homo sapiens, MOLT-4, 48 h, mean ± SEM, N/A: not active
  IC50: 4.05 ± 0.1 µM
MOLT-4; [5]
  SI: selectivity index, MOLT-4: 2.66
REH
  IC50: 9.46 ± 3.2 µM
REH; [5]
  SI: selectivity index, REH: 1.13
THP-1; Homo sapiens, THP-1, 48 h, mean ± SEM, N/A: not active
  IC50: 11.04 ± 0.1 µM
THP-1; [5]
  SI: selectivity index, THP-1: 0.97
